Measurements taken from the supplement of paper PMC7840683.

System: HepaRG
Assay: LDH release cytotoxicity, % of total lysis control; higher = more cytotoxic
Settings: 48 h
How it was run: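 Single-lot HepaRG cells on collagen I-coated 96-well plates were exposed for 48 h in duplicate, in serum-free induction medium with 0.5% DMSO, to eight-point half-log series (test chemicals top 100 µM). Total lysis wells received 0.1% Triton X, and LDH leakage into 50 µL spent medium was read as resorufin fluorescence (CytoTox-ONE, Tecan Safire). Percent cytotoxicity was normalized to on-plate vehicle and total lysis controls and averaged over the duplicates.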

CC(C)(C)C(O)(CCc1ccc(Cl)cc1)Cn1cncn1 (centres undefined) [Tebuconazole]
Settings | LDH release cytotoxicity [%]
0.03162 µM | -1.4
0.1 µM | -0.0947
0.3162278 µM | -1.08
1 µM | -1.1
3.16228 µM | -0.155
10 µM | -0.0217
31.6228 µM | 1.4
100 µM | 16.5

CCc1ccc(C(=O)NN(C(=O)c2cc(C)cc(C)c2)C(C)(C)C)cc1 [Tebufenozide]
Settings | LDH release cytotoxicity [%]
0.03162 µM | -0.939
0.1 µM | 0.194
0.3162278 µM | -0.662
1 µM | -0.0494
3.16228 µM | -0.0064
10 µM | 0.106
31.6228 µM | 0.645
100 µM | 11.3

CCc1nn(C)c(C(=O)NCc2ccc(C(C)(C)C)cc2)c1Cl [Tebufenpyrad]
Settings | LDH release cytotoxicity [%]
0.03162 µM | -1.57
0.1 µM | -1.25
0.3162278 µM | -2.38
1 µM | 5.74
3.16228 µM | 10.5
10 µM | 15.5
31.6228 µM | 23.2
100 µM | 49.6

CCOP(=S)(Oc1cnc(C(C)(C)C)nc1)OC(C)C (centres undefined) [Tebupirimfos]
Settings | LDH release cytotoxicity [%]
0.031623 µM | 0.203
0.1 µM | -1.67
0.316228 µM | -2.72
1 µM | -2.26
3.16228 µM | -2.34
10 µM | -3.02
31.6228 µM | -2.48
100 µM | -2.06

CNC(=O)N(C)c1nnc(C(C)(C)C)s1 [Tebuthiuron]
Settings | LDH release cytotoxicity [%]
0.03162 µM | -1.29
0.1 µM | -1.38
0.3162278 µM | -1.87
1 µM | -1.53
3.16228 µM | -0.935
10 µM | -1.24
31.6228 µM | -1.15
100 µM | 0.223

Cc1c(F)c(F)c(COC(=O)C2C(C=C(Cl)C(F)(F)F)C2(C)C)c(F)c1F (centres undefined) [Tefluthrin]
Settings | LDH release cytotoxicity [%]
0.03162 µM | -0.665
0.1 µM | -0.785
0.3162278 µM | -1.49
1 µM | -1.6
3.16228 µM | -1.72
10 µM | -0.97
31.6228 µM | -0.478
100 µM | -0.883

CCC(=NOCC=CCl)C1C(=O)CC(C2CCOCC2)CC1=O (centres undefined) [Tepraloxydim]
Settings | LDH release cytotoxicity [%]
0.03162 µM | -1.86
0.1 µM | -1.65
0.3162278 µM | -1.97
1 µM | -1.72
3.16228 µM | -1.7
10 µM | -1.32
31.6228 µM | -0.75
100 µM | -0.617

CC1=NC(=O)N(C(C)(C)C)C(=O)C1Cl (centres undefined) [Terbacil]
Settings | LDH release cytotoxicity [%]
0.031623 µM | -1.65
0.1 µM | -3.63
0.316228 µM | -2.5
1 µM | -3.38
3.16228 µM | -2.68
10 µM | -2.77
31.6228 µM | -1.74
100 µM | 2.1

CCOP(=S)(OCC)SCSC(C)(C)C [Terbufos]
Settings | LDH release cytotoxicity [%]
0.03162 µM | -1.37
0.1 µM | -0.712
0.3162278 µM | -1.15
1 µM | -1.03
3.16228 µM | -0.647
10 µM | -0.0424
31.6228 µM | -0.0818
100 µM | 1.12

CCNc1nc(Cl)nc(NC(C)(C)C)n1 [Terbutylazine]
Settings | LDH release cytotoxicity [%]
0.03162 µM | 0.3
0.1 µM | -1.75
0.3162278 µM | -0.304
1 µM | -1.25
3.16228 µM | -0.494
10 µM | -0.989
31.6228 µM | -0.271
100 µM | -0.0173

CCC(=O)OC1CCC2C3CCC4=CC(=O)CCC4(C)C3CCC12C (centres undefined) [Testosterone propionate]
Settings | LDH release cytotoxicity [%]
0.03162 µM | -1.39
0.1 µM | -0.545
0.3162278 µM | -1.1
1 µM | -1.85
3.16228 µM | -1.06
10 µM | -1.07
31.6228 µM | -0.42
100 µM | -0.461

O=C(O)Cc1cc(I)c(Oc2cc(I)c(O)c(I)c2)c(I)c1 [Tetrac]
Settings | LDH release cytotoxicity [%]
0.0211873 µM | 0.0963
0.067 µM | -0.0291
0.211873 µM | 0.0359
0.67 µM | 0.258
2.11873 µM | 1.04
6.7 µM | 0.279
21.1873 µM | -0.194
67 µM | 34

FC(F)C(F)(F)OCC(Cn1cncn1)c1ccc(Cl)cc1Cl (centres undefined) [Tetraconazole]
Settings | LDH release cytotoxicity [%]
0.0314647 µM | -0.665
0.0995 µM | -2.23
0.3146466 µM | -1.54
0.995 µM | -2.38
3.14647 µM | -2.48
9.95 µM | -2.1
31.4647 µM | 1.5
99.5 µM | 52.5

CCN(CC)C(=S)SSC(=S)N(CC)CC [Tetraethylthiuram disulfide]
Settings | LDH release cytotoxicity [%]
0.0322552 µM | -1.43
0.102 µM | -2.15
0.322552 µM | -2.5
1.02 µM | -2.4
3.2255232 µM | -1.91
10.2 µM | -1.62
32.2552 µM | -0.659
102 µM | 3.01

CC(C)=CC1C(C(=O)OCN2C(=O)C3=C(CCCC3)C2=O)C1(C)C (centres undefined) [Tetramethrin]
Settings | LDH release cytotoxicity [%]
0.03162 µM | -1.77
0.1 µM | -1.73
0.3162278 µM | -2
1 µM | -2.13
3.16228 µM | -1.65
10 µM | -1.51
31.6228 µM | -0.61
100 µM | 0.736

O=C1CCC(N2C(=O)c3ccccc3C2=O)C(=O)N1 (centres undefined) [Thalidomide]
Settings | LDH release cytotoxicity [%]
0.03162 µM | -0.888
0.1 µM | -1.52
0.3162278 µM | -0.291
1 µM | -0.415
3.16228 µM | -0.0333
10 µM | 0.674
31.6228 µM | 1.56
100 µM | 1.53

Cn1cnc2c1c(=O)[nH]c(=O)n2C [Theobromine]
Settings | LDH release cytotoxicity [%]
0.0132816 µM | 0.266
0.042 µM | 0.527
0.132816 µM | 0.244
0.42 µM | -0.545
1.3281566 µM | 0.0875
4.2 µM | -0.226
13.281566 µM | -0.215
42 µM | 0.896

Cn1c(=O)c2[nH]cnc2n(C)c1=O [Theophylline]
Settings | LDH release cytotoxicity [%]
0.03162 µM | -1.27
0.1 µM | -2.1
0.3162278 µM | -1.54
1 µM | -1.74
3.16228 µM | -1.51
10 µM | -1.15
31.6228 µM | -0.719
100 µM | -0.479
